We go through 13 compounds from ChEMBL document CHEMBL1125778, “Development of a small RGD peptide fibrinogen receptor antagonist with potent antiaggregatory activity in vitro” (J Med Chem, 1991).

Where a SMILES comes first, the peptide text is derived from it. Bridges are numbered along the chain shown (N, C = ends). [ ]: non-standard residue; d: D form. NMeR = CN[C@@H](CCCNC(=N)N)C(=O)O; Pen = CC(C)(S)[C@H](N)C(=O)O

The target in one assay is Integrin alpha-IIb/beta-3 (Homo sapiens, UniProt P05106+P08514). The assay is described as follows: Inhibition of 125[I] Fibrinogen binding to isolated purified human fibrinogen receptor. In kind it is protein-complex assay.
Integrin alpha-IIb/beta-3, sequence (P05106 27-788 limits assumed): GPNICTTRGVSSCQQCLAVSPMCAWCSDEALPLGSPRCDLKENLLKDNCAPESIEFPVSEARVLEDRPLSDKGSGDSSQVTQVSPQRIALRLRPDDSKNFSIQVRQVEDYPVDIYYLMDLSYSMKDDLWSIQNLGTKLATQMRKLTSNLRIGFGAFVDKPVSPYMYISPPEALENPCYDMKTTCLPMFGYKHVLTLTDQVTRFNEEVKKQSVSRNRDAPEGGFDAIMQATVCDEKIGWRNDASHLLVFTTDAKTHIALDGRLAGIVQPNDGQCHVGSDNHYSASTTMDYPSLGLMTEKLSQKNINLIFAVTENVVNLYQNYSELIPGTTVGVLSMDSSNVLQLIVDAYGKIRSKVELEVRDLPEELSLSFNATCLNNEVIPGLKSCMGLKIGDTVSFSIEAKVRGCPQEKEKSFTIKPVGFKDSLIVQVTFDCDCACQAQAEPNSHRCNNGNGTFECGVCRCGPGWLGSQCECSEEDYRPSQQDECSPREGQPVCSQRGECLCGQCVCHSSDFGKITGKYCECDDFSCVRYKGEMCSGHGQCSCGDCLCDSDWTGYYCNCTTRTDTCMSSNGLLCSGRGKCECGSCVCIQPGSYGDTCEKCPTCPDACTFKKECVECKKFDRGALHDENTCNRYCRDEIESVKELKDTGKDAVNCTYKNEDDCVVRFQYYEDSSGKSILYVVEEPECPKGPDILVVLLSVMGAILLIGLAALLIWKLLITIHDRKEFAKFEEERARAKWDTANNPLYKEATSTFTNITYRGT
Integrin alpha-IIb/beta-3, sequence (P08514 32-887 limits assumed): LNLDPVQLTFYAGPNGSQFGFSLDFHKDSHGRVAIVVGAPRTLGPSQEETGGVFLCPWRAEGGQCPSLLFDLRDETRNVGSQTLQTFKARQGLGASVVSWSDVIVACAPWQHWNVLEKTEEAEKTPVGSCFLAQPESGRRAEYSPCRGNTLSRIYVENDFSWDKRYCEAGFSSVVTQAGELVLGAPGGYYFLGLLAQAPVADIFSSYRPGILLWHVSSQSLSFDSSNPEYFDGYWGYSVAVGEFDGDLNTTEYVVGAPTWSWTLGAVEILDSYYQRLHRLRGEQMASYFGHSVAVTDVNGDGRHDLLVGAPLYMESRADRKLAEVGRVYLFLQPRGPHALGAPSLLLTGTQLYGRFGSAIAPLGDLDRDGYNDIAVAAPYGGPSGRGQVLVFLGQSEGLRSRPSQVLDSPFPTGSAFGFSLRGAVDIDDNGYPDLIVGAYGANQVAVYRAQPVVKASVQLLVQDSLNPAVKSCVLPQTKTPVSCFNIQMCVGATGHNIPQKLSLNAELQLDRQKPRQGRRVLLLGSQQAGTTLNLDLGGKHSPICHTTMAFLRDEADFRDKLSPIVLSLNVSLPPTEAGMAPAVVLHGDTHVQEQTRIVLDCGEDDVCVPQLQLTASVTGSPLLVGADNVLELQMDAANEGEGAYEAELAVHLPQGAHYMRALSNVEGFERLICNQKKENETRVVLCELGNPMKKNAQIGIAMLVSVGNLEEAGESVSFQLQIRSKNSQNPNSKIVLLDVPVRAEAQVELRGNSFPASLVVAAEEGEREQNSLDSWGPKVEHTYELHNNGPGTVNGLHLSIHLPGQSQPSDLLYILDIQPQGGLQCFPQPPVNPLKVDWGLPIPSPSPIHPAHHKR
Integrin alpha-IIb/beta-3, sequence (P08514 891-1039 limits assumed): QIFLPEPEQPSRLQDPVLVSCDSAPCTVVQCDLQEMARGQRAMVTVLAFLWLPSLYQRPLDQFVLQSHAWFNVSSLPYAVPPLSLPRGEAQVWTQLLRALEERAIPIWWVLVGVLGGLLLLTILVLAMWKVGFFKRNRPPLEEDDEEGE
Details: not given
With Ac-HHLGGAKQAGDV-OH, the Ki came to 14.5 µM.

Turning to `CC(=O)N[C@H]1CSSC[C@@H](C(N)=O)NC(=O)[C@H](CO)NC(=O)[C@H](CC(=O)O)NC(=O)CNC(=O)[C@H](CCCN=C(N)N)NC1=O` (Ac-CRGDSC-NH2; disulfide 1-6), the Ki came out at 5.3 µM.

Turning to `CC(=O)N[C@H]1CSSC[C@@H](C(N)=O)NC(=O)[C@H](CC(=O)O)NC(=O)CNC(=O)[C@H](CCCN=C(N)N)NC1=O`, affinity was put at a Ki of 0.78 µM.

`CC(=O)N[C@H]1CSSC(C)(C)[C@@H](C(N)=O)NC(=O)[C@H](CC(=O)O)NC(=O)CNC(=O)[C@H](CCCN=C(N)N)N(C)C1=O` (Ac-C[NMeR]GD[Pen]-NH2; disulfide 1-5) registered an inhibition constant (Ki) of 0.058 µM.

With `CC(=O)N[C@@H]1CSSC(C)(C)[C@H](C(N)=O)NC(=O)[C@H](CC(=O)O)NC(=O)CNC(=O)[C@@H](CCCNC(=N)N)NC1=O`, the Ki worked out at 0.72 µM.

A further assay relates to Integrin alpha-IIb/beta-3 (Canis familiaris). The assay is described as follows: Inhibition of canine platelet-rich plasma induced by ADP. More on the design: concentration or dose not given beside the values. The conditions noted are these: Canis lupus familiaris, concentration not given here.
In turn, `CC(=O)N[C@@H](CCCN=C(N)N)C(=O)NCC(=O)N[C@@H](CC(=O)O)C(=O)N[C@@H](Cc1ccc(O)cc1)C(N)=O` (Ac-RGDY-NH2) registered an inhibition of 98%.

With `CC(=O)N[C@@H](Cc1c[nH]cn1)C(=O)N[C@@H](Cc1c[nH]cn1)C(=O)N[C@@H](CC(C)C)C(=O)NCC(=O)NCC(=O)N[C@@H](C)C(=O)N[C@@H](CCCCN)C(=O)N[C@H]1CSSC(C)(C)[C@H](C(N)=O)NC(=O)[C@H](CC(=O)O)NC(=O)CNC(=O)[C@H](CCCN=C(N)N)NC1=O`, the inhibition worked out at 100%.

With `CC(=O)N[C@@H]1CSSC(C)(C)[C@H](C(N)=O)NC(=O)[C@@H](CC(=O)O)NC(=O)CN(C)C(=O)[C@@H](CCCN=C(N)N)NC1=O`, the inhibition turned out to be 57%.

`CC(=O)N[C@H]1C(=O)N[C@@H](CCCN=C(N)N)C(=O)NCC(=O)N[C@@H](CC(=O)O)C(=O)N[C@H](C(N)=O)CSSC1(C)C` displayed an inhibition of 100%.

In turn, `CC(=O)N[C@@H]1CSSC(C)(C)[C@H](C(N)=O)NC(=O)[C@H](CC(=O)O)NC(=O)CNC(=O)[C@H](CCCN=C(N)N)NC(=O)CNC1=O` came in with an inhibition of 100%.

As for `CC(=O)N[C@@H]1CSSC[C@H](C(N)=O)NC(=O)[C@@H](CC(=O)O)NC(=O)CNC(=O)[C@@H](CCCN=C(N)N)NC1=O`, the inhibition worked out at 55%.

With `CC(=O)N[C@H]1C(=O)N(C)[C@@H](CCCN=C(N)N)C(=O)NCC(=O)N[C@@H](CC(=O)O)C(=O)N[C@@H](C(N)=O)C(C)(C)SSC1(C)C`, the inhibition was 100%.

`CC(=O)N[C@@H]1CSSC[C@@H](C(N)=O)NC(=O)[C@H](CC(=O)O)NC(=O)CNC(=O)[C@H](CCCN=C(N)N)NC(=O)CNC1=O` came in with an inhibition of 100%.

As a reminder, the Ki is a measure of affinity in units of concentration, obtained from inhibition or displacement. The inhibition is the change of the read-out against control, counted positive when it falls.
